Literature values, collected in patent US20040120985A1, “Food product for increasing the cognitive functional capacity” (priority 2001, published 2004).

Key:
[1] = tested on: cognitive functional capacity; conditions: individuals older than 40 years, 100 mg to 300 mg per day
aging brain = conditions: animal experimental studies
[2] = oral administration

bioavailability [2]: good
passage of the blood-brain barrier ([2]; after passing through the liver): crosses the blood-brain barrier
Substance: phosphatidyl serine
cognitive functional capacity [1]: increased
ATPase-dependent ion transport via the cell membrane (aging brain): improves the ATPase-dependent ion transport via the cell membrane
age-related breakdown of the receptors for the nerve growth factor (aging brain): partially prevents the age-related breakdown of the receptors for the nerve growth factor
cholesterol/phospholipid ratio in the aging brain (aging brain): normalizes the cholesterol/phospholipid ratio in the aging brain
neuron atrophy (aging brain): protects against neuron atrophy
protein kinase C balance (aging brain): normalizes the protein kinase C balance
formation of nerve growth factors (aging brain; effect not identified for other phospholipids): promotes the formation of nerve growth factors
